Patent EP0910563B1, “INTEGRIN RECEPTOR ANTAGONISTS” (SMITHKLINE BEECHAM CORPORATION, priority 1995, dated 1997)

Tests used:
αvβ3 = target: T1, αvβ3 (Homo sapiens, UniProt P05106+P06756); assay: Solid-phase [3H]-SK&F-107260 binding to αvβ3 (inhibition of vitronectin binding); conditions: human placenta or platelet αvβ3 on ELISA plates, 5.0 nM [3H]-SK&F-107260
T1 construct: Human placenta or human platelet αvβ3 (0.1-0.3 mg/mL) in buffer T; from tissue; host or cells: human placenta or human platelets
T1 sequence (P06756 31-889 limits assumed): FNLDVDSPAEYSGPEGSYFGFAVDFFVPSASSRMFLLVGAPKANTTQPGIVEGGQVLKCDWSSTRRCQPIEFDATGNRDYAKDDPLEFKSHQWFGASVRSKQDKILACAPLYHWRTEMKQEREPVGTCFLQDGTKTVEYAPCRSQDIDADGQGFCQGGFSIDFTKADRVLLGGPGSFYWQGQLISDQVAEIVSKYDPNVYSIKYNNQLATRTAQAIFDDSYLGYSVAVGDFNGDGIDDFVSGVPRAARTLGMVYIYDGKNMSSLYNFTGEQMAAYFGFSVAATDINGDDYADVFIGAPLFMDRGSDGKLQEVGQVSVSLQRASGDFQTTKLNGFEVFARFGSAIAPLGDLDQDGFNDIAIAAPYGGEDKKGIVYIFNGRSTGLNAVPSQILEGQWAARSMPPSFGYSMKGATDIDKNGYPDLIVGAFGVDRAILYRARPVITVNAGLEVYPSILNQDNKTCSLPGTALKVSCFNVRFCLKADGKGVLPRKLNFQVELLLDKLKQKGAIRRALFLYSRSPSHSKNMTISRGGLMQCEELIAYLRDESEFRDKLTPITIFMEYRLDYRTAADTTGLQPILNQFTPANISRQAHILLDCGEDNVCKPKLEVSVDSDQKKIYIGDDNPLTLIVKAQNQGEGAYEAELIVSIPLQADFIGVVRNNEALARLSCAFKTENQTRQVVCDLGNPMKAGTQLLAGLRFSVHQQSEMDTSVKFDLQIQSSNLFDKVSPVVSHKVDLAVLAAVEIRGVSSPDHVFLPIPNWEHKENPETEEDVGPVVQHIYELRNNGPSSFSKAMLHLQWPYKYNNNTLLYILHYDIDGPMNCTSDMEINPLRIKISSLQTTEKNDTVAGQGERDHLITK
T1 sequence (P06756 891-1048 partner limits assumed): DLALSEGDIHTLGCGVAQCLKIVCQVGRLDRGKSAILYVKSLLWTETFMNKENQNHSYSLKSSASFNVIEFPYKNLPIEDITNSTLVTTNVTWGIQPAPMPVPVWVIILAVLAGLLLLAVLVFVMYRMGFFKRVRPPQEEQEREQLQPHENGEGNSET
T1 sequence (P05106 27-788): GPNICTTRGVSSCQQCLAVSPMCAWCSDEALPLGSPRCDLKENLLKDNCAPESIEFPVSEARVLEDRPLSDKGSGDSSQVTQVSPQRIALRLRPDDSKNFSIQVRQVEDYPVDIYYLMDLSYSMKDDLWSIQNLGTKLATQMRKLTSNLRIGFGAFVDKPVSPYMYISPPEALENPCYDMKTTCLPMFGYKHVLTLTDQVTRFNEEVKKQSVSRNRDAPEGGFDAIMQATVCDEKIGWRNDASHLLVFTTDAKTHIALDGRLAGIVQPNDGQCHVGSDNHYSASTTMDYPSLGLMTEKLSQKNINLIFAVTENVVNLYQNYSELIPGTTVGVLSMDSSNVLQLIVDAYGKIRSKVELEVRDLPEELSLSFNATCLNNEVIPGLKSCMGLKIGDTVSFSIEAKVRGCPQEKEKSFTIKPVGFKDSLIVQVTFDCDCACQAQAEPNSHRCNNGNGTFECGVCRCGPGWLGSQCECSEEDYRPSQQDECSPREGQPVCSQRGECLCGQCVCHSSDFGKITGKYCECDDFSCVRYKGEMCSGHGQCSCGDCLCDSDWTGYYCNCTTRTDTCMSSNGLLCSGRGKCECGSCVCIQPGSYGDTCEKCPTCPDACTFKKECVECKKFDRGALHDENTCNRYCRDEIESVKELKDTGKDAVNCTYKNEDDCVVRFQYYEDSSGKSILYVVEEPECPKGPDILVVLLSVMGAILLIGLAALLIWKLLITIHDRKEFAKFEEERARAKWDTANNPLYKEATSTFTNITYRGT
Experimental: Solid-Phase [^3H]-SK&F-107260 Binding to αvβ3: Human placenta or human platelet αvβ3 (0.1-0.3 mg/mL) in buffer T (containing 2 mM CaCl2 and 1% octylglucoside) was diluted with buffer T containing 1 mM CaCl2, 1 mM MnCl2, 1 mM MgCl2 (buffer A) and 0.05% NaN3, and then immediately added to 96-well ELISA plates (Corning, New York, NY) at 0.1 mL per well. 0.1 - 0.2 µg of αvβ3 was added per well. The plates were incubated overnight at 4°C. At the time of the experiment, the wells were washed once with buffer A and were incubated with 0.1 mL of 3.5% bovine serum albumin in the same buffer for 1 hr at room temperature. Following incubation the wells were aspirated completely and washed twice with 0.2 mL buffer A. […]
The plates were incubated for 1 hr at room temperature. […] The receptors were solubilized with 0.1 mL of 1% SDS and the bound [^3H]-SK&F-107260 was determined by liquid scintillation counting with the addition of 3 mL Ready Safe in a Beckman LS Liquid Scintillation Counter, with 40% efficiency. Nonspecific binding of [^3H]-SK&F-107260 was determined in the presence of 2 µM SK&F-107260 and was consistently less than 1% of total radioligand input. […] The Ki (dissociation constant of the antagonist) was calculated according to the equation: Ki = IC50/(1 + L/Kd), where L and Kd were the concentration and the dissociation constant of [^3H]-SK&F-107260, respectively.

[1] = target: T2, fibrinogen receptor (αIIbβ3) (Homo sapiens, UniProt P05106+P08514); assay: Competitive binding of [3H]-SK&F-107260 to αIIbβ3 in liposomes; conditions: purified platelet αIIbβ3-containing liposomes, 4.5 nM [3H]-SK&F-107260
T2 construct: followed by the addition of 1 µg of the purified platelet αIIbβ3-containing liposomes; tissue Red Cross (platelets); host or cells: outdated, washed human platelets; lentil lectin sepharose purification
T2 sequence (P08514 32-887 limits assumed): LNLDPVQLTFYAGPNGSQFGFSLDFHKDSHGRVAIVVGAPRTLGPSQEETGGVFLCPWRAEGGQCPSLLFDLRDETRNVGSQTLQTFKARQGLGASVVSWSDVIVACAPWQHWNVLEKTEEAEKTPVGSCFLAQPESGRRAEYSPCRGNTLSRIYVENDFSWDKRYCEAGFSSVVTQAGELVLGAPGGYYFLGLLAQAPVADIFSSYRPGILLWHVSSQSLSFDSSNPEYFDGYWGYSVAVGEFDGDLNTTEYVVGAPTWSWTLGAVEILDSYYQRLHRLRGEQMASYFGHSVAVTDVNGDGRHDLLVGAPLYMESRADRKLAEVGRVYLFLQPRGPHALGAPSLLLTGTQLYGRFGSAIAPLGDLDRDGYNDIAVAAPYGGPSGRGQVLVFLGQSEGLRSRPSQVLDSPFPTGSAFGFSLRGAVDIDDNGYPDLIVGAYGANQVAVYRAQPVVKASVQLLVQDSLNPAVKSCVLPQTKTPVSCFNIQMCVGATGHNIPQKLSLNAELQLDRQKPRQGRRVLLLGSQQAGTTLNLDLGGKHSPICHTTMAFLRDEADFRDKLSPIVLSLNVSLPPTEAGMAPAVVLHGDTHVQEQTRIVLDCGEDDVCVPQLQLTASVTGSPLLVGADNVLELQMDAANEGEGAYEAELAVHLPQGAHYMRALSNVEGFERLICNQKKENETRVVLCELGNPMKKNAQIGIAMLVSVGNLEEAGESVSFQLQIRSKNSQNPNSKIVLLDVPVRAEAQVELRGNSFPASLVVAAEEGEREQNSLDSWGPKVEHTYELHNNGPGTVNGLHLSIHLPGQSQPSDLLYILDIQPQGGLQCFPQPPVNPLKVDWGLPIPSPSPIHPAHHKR
T2 sequence (P08514 891-1039 partner limits assumed): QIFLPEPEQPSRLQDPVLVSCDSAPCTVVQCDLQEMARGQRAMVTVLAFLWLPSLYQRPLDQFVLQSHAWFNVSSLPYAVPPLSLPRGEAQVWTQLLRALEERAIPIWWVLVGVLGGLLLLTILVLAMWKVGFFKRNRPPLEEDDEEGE
T2 sequence (P05106 27-788): as the sequence (P05106 27-788) above
Experimental: Ten units of outdated, washed human platelets (obtained from Red Cross) were lyzed by gentle stirring in 3% octylglucoside, 20 mM Tris-HCl, pH 7.4, 140 mM NaCl, 2 mM CaCl2 at 4°C for 2 h. The lysate was centrifuged at 100,000g for 1 h. The supernatant obtained was applied to a 5 mL lentil lectin sepharose 4B column (E.Y. Labs) preequilibrated with 20 mM Tris-HCl, pH 7.4, 100 mM NaCI, 2 mM CaCl2, 1% octylglucoside (buffer A). After 2 h incubation, the column was washed with 50 mL cold buffer A. The lectin-retained αIIbβ3 was eluted with buffer A containing 10% dextrose. All procedures were performed at 4°C. The αIIbβ3 obtained was >95% pure as shown by SDS polyacrylamide gel electrophoresis. […]
The binding to the fibrinogen receptor (αIIbβ3) was assayed by an indirect competitive binding method using [^3H]-SK&F-107260 as an RGD-type ligand. […] Bound radioactivity remaining on the filters was counted in 1.5 mL Ready Solve (Beckman Instruments, Fullerton, CA) in a Beckman Liquid Scintillation Counter (Model LS6800), with 40% efficiency. Nonspecific binding was determined in the presence of 2 µM unlabeled SK&F-107260 and was consistently less than 0.14% of the total radioactivity added to the samples. […]
Competition binding data were analyzed by a nonlinear least-squares curve fitting procedure. […]

Ki (αvβ3)	Ki [1]	SMILES
15 µM	0.009 µM	O=C(O)CC1Cc2ccc(C(=O)N3CCC(C4CCNCC4)CC3)cc2Cc2ccccc21 (racemic) [Example 2, (±)-10,11-dihydro-3-[1-(4,4'-bipiperidinyl)carbonyl]-5H-dibenzo[a,d]cycloheptene-10-acetic acid]
0.023 µM	> 50 µM	CN(Cc1nc2ccccc2[nH]1)C(=O)c1ccc2c(c1)Cc1ccccc1C(CC(=O)O)C2 (racemic) [Example 1, (±)-10,11-dihydro-3-[[[(1H-benzimidazol-2-yl)methyl]methylamino]carbonyl]-5H-dibenzo[a,d]cycloheptene-10-acetic acid]
